According to patent US7291730B2, “Pyrimidine compounds and their use” (Sumitomo Chemical Company, Limited, priority 2000, dated 2007):

Tested on: Western Flower Thrips (Frankliniella occidentalis)
Assay: Insecticidal test against western flower thrips, sprayed cucumber leaves (Test Example 3)
Format: in vivo
Settings: 500 ppm, sprayed 20 ml/cup onto cucumber, thirty larvae on cut first foliage leaves, after 7 days
Protocol: A formulation of a test compound obtained in Formulation Example 5 was diluted with water so that the active ingredient concentration came to 500 ppm to prepare a test spray solution. The seeds of cucumber were planted in polyethylene cups and grown until their first foliage leaves developed, and the above test spray solution was sprayed at the rate of 20 ml/cup onto these cucumber plants. After the chemical solution sprayed onto the cucumber plants was dried, the first foliage leaves were cut off and placed on a water-containing filter paper (70 mm in diameter) in a polyethylene cup (110 mm in diameter). Thirty larvae of western flower thrips (Frankliniella occidentalis) were set free in the polyethylene cup, and the lid was put on the polyethylene cup. After 7 days, the number of surviving insects was examined.

C#CCOc1cc(OCc2ccccc2)ncn1 [(13)]
number of surviving insects: zero

CC#CCOc1cc(-c2ccc(F)cc2F)ncn1 [(44)]
number of surviving insects: zero

CC#CCOc1ncnc(Oc2c(F)cccc2F)c1F [(190)]
number of surviving insects: zero

CC#CCOc1cc(OCC#CCC)ncn1 [(6)]
number of surviving insects: zero

CC#CCOc1cc(Oc2cc(F)ccc2F)ncn1 [(43)]
number of surviving insects: zero
